The structures appear in SMILES notation. Like-named read-outs stand apart in the source and are kept apart here. Where a SMILES comes first, the peptide text is derived from it. A value given as a limit tells only on which side of the number the result lay.

This note sets out measurements from patent publication US11395847B2, “Acylated GLP-1/GLP-2 dual agonists” (Zealand Pharma A/S, priority 2016, dated 2022).

The nature of series [1]: Chemical stability (RP-HPLC normalized purity after incubation at 40° C.). Conditions: 14-day incubation, 0.2 mg/ml, normalized purity (area-%); for pH 6 normalized stability: pH 6, 40° C.; for pH 7 normalized stability: pH 7, 40° C. In kind it is physicochemical. The essentials:
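Peptide at 0.2 mg/ml final in water adjusted to pH 6, 7, 7.5 or 9, incubated at 40° C for 14 days. Purity measured as main-peak area-% by C18 RP-HPLC (acetonitrile/TFA/water gradient, UV 220 nm) and normalized to T=0 set at 100 for each pH.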

For series [2], the system named is Normal chow-fed C57BL/6J male mice. Kind of series: Effect on fasting glucose and intestinal weight in normal mice. The settings on record: for Small intestinal wet weight: 100 nmol/kg s.c. once daily for 4 days, sacrificed 24 hours after final dosing; for Fasting blood glucose: 100 nmol/kg s.c., day 0 after a single injection, fasted mice. In kind it is in vivo. How it is done: Normal chow-fed C57BL/6J male mice were used. The mice were kept in standard housing conditions, light-, temperature-, and humidity-controlled room (12:12 h light-dark cycle, with lights on at 06.00-18.00 h; 20-22° C.; 50-80% relative humidity). Each dosing group consisted of 6 animals. Mice were dosed once daily with 100 nmol/kg with the test compounds or vehicle for 4 days via subcutaneous administration.
On day 0 mice were fasted and blood glucose levels measured after a single s.c. injection with peptides. Animals were sacrificed 24 hours after final dosing on day 3, and small intestinal wet weights were measured.

The next series has as its target T1, human GLP-1 receptor (Homo sapiens, UniProt P43220).
T1 construct: expressed in transfected cells
The series is described as follows: GLP-1 receptor potency assay (cAMP ALPHASCREEN, HEK293 cells stably expressing GLP-1 R). In kind it is cell-based. Conditions: cAMP response, HEK293 cells expressing human GLP-1 R. The essentials:
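Clonal HEK293 line stably transfected with human GLP-1R (G418-selected) was treated with test compounds and the cAMP response quantified by ALPHASCREEN. Signals were normalized to positive control and vehicle, with EC50 and maximal response taken from concentration-response curves.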
On the technique in general: Bead proximity is the source of the signal in Alpha formats.

Series [3] can be described thus: Solubility assessment (turbidity absorbance at 325 nm). In kind it is physicochemical. The essentials: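 Peptide stock at 2 mg/ml in water at pH 2.5 diluted 1:1 into 100 mM acetate (pH 4.0, 5.0), histidine (pH 6.0, 7.0) or phosphate (pH 6.0, 7.0, 7.5) buffer. Absorbance at 280 and 325 nm read at ambient temperature (typically 25 °C), single samples (n=1).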
Another series concerns the target T2, human GLP-2 receptor (Homo sapiens, UniProt O95838, D470N).
T2 construct: expressed in transfected cells
T2 sequence (O95838 1-553 D470N): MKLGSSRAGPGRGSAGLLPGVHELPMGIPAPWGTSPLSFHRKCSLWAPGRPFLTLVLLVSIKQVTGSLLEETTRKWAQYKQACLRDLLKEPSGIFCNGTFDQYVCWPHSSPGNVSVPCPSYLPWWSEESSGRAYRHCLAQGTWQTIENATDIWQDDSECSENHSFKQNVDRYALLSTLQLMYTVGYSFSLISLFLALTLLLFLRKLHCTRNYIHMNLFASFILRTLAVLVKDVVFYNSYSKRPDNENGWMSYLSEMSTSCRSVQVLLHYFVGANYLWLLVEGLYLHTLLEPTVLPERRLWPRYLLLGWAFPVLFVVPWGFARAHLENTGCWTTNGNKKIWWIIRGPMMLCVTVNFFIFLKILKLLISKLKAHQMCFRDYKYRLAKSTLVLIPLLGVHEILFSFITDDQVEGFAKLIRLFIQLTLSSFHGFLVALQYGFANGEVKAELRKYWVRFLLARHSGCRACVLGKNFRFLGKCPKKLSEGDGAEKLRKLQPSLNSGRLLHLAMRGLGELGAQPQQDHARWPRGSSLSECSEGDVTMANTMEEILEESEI
The series is described as follows: GLP-2 receptor potency assay (cAMP ALPHASCREEN, HEK293 cells stably expressing GLP-2 R). Conditions: cAMP response, HEK293 cells expressing human GLP-2 R; read-out: EC50 GLP-2. In kind it is cell-based. The essentials:
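HEK293 clones stably transfected with the human GLP-2 receptor, selected with G418, were used. Intracellular cAMP was quantified by AlphaScreen. Responses were normalised to positive and vehicle controls, and EC50 and maximal response were taken from concentration-response curves.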

T1 sequence (P43220 24-463): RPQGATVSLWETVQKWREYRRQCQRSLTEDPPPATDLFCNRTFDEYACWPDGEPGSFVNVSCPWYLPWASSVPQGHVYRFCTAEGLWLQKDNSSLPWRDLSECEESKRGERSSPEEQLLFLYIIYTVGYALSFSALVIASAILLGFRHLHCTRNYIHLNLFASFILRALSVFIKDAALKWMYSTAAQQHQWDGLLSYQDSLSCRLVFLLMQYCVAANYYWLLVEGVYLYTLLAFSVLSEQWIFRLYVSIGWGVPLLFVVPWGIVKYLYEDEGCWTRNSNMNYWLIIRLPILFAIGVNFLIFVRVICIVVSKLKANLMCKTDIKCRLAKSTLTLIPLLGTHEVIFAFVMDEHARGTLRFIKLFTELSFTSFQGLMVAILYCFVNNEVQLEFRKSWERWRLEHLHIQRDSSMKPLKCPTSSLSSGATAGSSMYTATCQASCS

Take `CC[C@H](C)[C@H](NC(=O)[C@H](Cc1ccccc1)NC(=O)[C@H](CC(=O)O)NC(=O)[C@H](CCCNC(=N)N)NC(=O)[C@H](C)NC(=O)[C@H](C)NC(=O)[C@H](CCCCN)NC(=O)[C@H](CCCCNC(=O)CC[C@H](NC(=O)CCCCCCCCCCCCCCCCC(=O)O)C(=O)O)NC(=O)[C@H](CC(=O)O)NC(=O)[C@H](CC(C)C)NC(=O)[C@@H](NC(=O)[C@@H](NC(=O)[C@H](C)NC(=O)[C@H](CC(C)C)NC(=O)[C@H](CCC(=O)O)NC(=O)[C@H](CO)NC(=O)[C@@H](NC(=O)[C@H](Cc1ccccc1)NC(=O)[C@H](CO)NC(=O)CNC(=O)[C@H](CCC(=O)O)NC(=O)C(C)(C)NC(=O)[C@@H](N)Cc1c[nH]cn1)[C@@H](C)O)[C@@H](C)O)[C@@H](C)CC)C(=O)N[C@@H](C)C(=O)N[C@@H](Cc1c[nH]c2ccccc12)C(=O)N[C@@H](CC(C)C)C(=O)N[C@H](C(=O)N[C@@H](CCC(=O)O)C(=O)N[C@@H](Cc1c[nH]cn1)C(=O)N[C@@H](CCCCN)C(=O)N[C@H](C(=O)N[C@H](C(=O)N[C@@H](CC(=O)O)C(=O)O)[C@@H](C)O)[C@@H](C)CC)[C@@H](C)CC` [Compound 5] (HELM PEPTIDE1{H.[Aib].E.G.S.F.T.S.E.L.A.T.I.L.D.K.K.A.A.R.D.F.I.A.W.L.I.E.H.K.I.T.D}|PEPTIDE2{[O=C(O)CCCCCCCCCCCCCCCCC(=O)[*:2]].[gGlu]}$PEPTIDE1,PEPTIDE2,16:R3-2:R2$$$V2.0): in series [1], the “pH 6 normalized stability” value is given as “A (>90% normalised stability)” and the “pH 7 normalized stability” value was “A (>90% normalised stability)”. Besides, in series [2], the “Small intestinal wet weight” value stood at 1.35 g and the Fasting blood glucose stood at 4.60 mM.

Take `CC[C@H](C)[C@H](NC(=O)[C@H](Cc1ccccc1)NC(=O)[C@H](CC(=O)O)NC(=O)[C@H](CCCNC(=N)N)NC(=O)[C@H](C)NC(=O)[C@H](C)NC(=O)[C@H](CCCCNC(=O)CC[C@H](NC(=O)CCCCCCCCCCCCCCCCC(=O)O)C(=O)O)NC(=O)CNC(=O)[C@H](CC(=O)O)NC(=O)[C@H](CC(C)C)NC(=O)[C@@H](NC(=O)[C@@H](NC(=O)[C@H](C)NC(=O)[C@H](CC(C)C)NC(=O)[C@H](CCC(=O)O)NC(=O)[C@H](CO)NC(=O)[C@@H](NC(=O)[C@H](Cc1ccccc1)NC(=O)[C@H](CO)NC(=O)CNC(=O)[C@H](CCC(=O)O)NC(=O)C(C)(C)NC(=O)[C@@H](N)Cc1c[nH]cn1)[C@@H](C)O)[C@@H](C)O)[C@@H](C)CC)C(=O)N[C@@H](C)C(=O)N[C@@H](Cc1c[nH]c2ccccc12)C(=O)N[C@@H](CC(C)C)C(=O)N[C@H](C(=O)N[C@@H](CCC(=O)O)C(=O)N[C@@H](Cc1c[nH]cn1)C(=O)N[C@@H](CCCCN)C(=O)N[C@H](C(=O)N[C@H](C(=O)N[C@@H](CC(=O)O)C(=O)O)[C@@H](C)O)[C@@H](C)CC)[C@@H](C)CC` [Compound 8] (HELM PEPTIDE1{H.[Aib].E.G.S.F.T.S.E.L.A.T.I.L.D.G.K.A.A.R.D.F.I.A.W.L.I.E.H.K.I.T.D}|PEPTIDE2{[O=C(O)CCCCCCCCCCCCCCCCC(=O)[*:2]].[gGlu]}$PEPTIDE1,PEPTIDE2,17:R3-2:R2$$$V2.0): in series [2], the “Small intestinal wet weight” value is 1.27 g and the Fasting blood glucose is on record as 5.28 mM.

In the case of `CC[C@H](C)[C@H](NC(=O)[C@H](CC(C)C)NC(=O)[C@H](Cc1c[nH]c2ccccc12)NC(=O)[C@H](C)NC(=O)[C@@H](NC(=O)[C@H](Cc1ccccc1)NC(=O)[C@H](CC(=O)O)NC(=O)[C@H](CCCNC(=N)N)NC(=O)[C@H](C)NC(=O)[C@H](C)NC(=O)[C@H](CCC(N)=O)NC(=O)[C@H](CCCCNC(=O)CC[C@H](NC(=O)CCCCCCCCCCCCCCCCC(=O)O)C(=O)O)NC(=O)[C@H](CC(=O)O)NC(=O)[C@H](CC(C)C)NC(=O)[C@@H](NC(=O)[C@@H](NC(=O)[C@H](C)NC(=O)[C@H](CC(C)C)NC(=O)[C@H](CCC(=O)O)NC(=O)[C@H](CO)NC(=O)[C@@H](NC(=O)[C@H](Cc1ccccc1)NC(=O)[C@@H](NC(=O)CNC(=O)[C@H](CCC(=O)O)NC(=O)C(C)(C)NC(=O)[C@@H](N)Cc1c[nH]cn1)[C@@H](C)O)[C@@H](C)O)[C@@H](C)O)[C@@H](C)CC)[C@@H](C)CC)C(=O)N[C@@H](C)C(=O)N[C@@H](Cc1c[nH]cn1)C(=O)N[C@@H](CCCCN)C(=O)N[C@H](C(=O)N[C@H](C(=O)N[C@@H](CC(=O)O)C(=O)O)[C@@H](C)O)[C@@H](C)CC` [Compound 23] (HELM PEPTIDE1{H.[Aib].E.G.T.F.T.S.E.L.A.T.I.L.D.K.Q.A.A.R.D.F.I.A.W.L.I.A.H.K.I.T.D}|PEPTIDE2{[O=C(O)CCCCCCCCCCCCCCCCC(=O)[*:2]].[gGlu]}$PEPTIDE1,PEPTIDE2,16:R3-2:R2$$$V2.0), the EC50 turned out to be 0.13 nM at human GLP-1 receptor and 0.24 nM at human GLP-2 receptor. Besides, the solubility in series [3] (100 mM acetate buffer pH 4.0, ambient temperature, read-out: Solubility Acetate buffer pH 4) is < 1000 µg/mL; in series [3] (100 mM acetate buffer pH 5.0, ambient temperature, read-out: Solubility Acetate buffer pH 5), < 1000 µg/mL; in series [3] (100 mM histidine buffer pH 6.0, ambient temperature, read-out: Solubility Histidine buffer pH 6), ≥ 1000 µg/mL; in series [3] (100 mM histidine buffer pH 7.0, ambient temperature, read-out: Solubility Histidine buffer pH 7), ≥ 1000 µg/mL; in series [3] (100 mM phosphate buffer pH 6.0, ambient temperature, read-out: Solubility Phosphate buffer pH 6), ≥ 1000 µg/mL; in series [3] (100 mM phosphate buffer pH 7.0, ambient temperature, read-out: Solubility Phosphate buffer pH 7) it was ≥ 1000 µg/mL. In addition, in series [3] (100 mM phosphate buffer pH 7.5, ambient temperature, read-out: Solubility Phosphate buffer pH 7.5), the solubility is ≥ 1000 µg/mL. Moreover, the “pH 6 normalized stability” value in series [1] was “A (>90% normalised stability)”. In series [1], the “pH 7 normalized stability” value was “B (>80% stability)”.

As for `CC[C@H](C)[C@H](NC(=O)[C@H](Cc1ccccc1)NC(=O)[C@H](CC(=O)O)NC(=O)[C@H](CCCNC(=N)N)NC(=O)[C@H](C)NC(=O)[C@H](C)NC(=O)[C@H](CCC(N)=O)NC(=O)[C@H](CCCCNC(=O)COCCOCCNC(=O)[C@H](CCCCN)NC(=O)[C@H](CCC(=O)O)NC(=O)[C@H](CCCCN)NC(=O)CC[C@H](NC(=O)CCCCCCCCCCCCCCCCCCC(=O)O)C(=O)O)NC(=O)[C@H](CC(=O)O)NC(=O)[C@H](CC(C)C)NC(=O)[C@@H](NC(=O)[C@@H](NC(=O)[C@H](C)NC(=O)[C@H](CC(C)C)NC(=O)[C@H](CCC(=O)O)NC(=O)[C@H](CO)NC(=O)[C@H](CO)NC(=O)[C@H](Cc1ccccc1)NC(=O)[C@@H](NC(=O)CNC(=O)[C@H](CCC(=O)O)NC(=O)C(C)(C)NC(=O)[C@@H](N)Cc1c[nH]cn1)[C@@H](C)O)[C@@H](C)O)[C@@H](C)CC)C(=O)N[C@@H](C)C(=O)N[C@@H](Cc1c[nH]c2ccccc12)C(=O)N[C@@H](CC(C)C)C(=O)N[C@H](C(=O)N[C@@H](CCC(N)=O)C(=O)N[C@@H](Cc1c[nH]cn1)C(=O)N[C@@H](CCCCN)C(=O)N[C@H](C(=O)N[C@H](C(=O)N[C@@H](CC(=O)O)C(=O)O)[C@@H](C)O)[C@@H](C)CC)[C@@H](C)CC` [Compound 48] (HELM PEPTIDE1{H.[Aib].E.G.T.F.S.S.E.L.A.T.I.L.D.K.Q.A.A.R.D.F.I.A.W.L.I.Q.H.K.I.T.D}|PEPTIDE2{[O=C(O)CCCCCCCCCCCCCCCCCCC(=O)[*:2]].[gGlu].K.E.K.[O=C(COCCOCCN[*:1])[*:2]]}$PEPTIDE1,PEPTIDE2,16:R3-6:R2$$$V2.0), in series [2], the “Small intestinal wet weight” value is 1.41 g and the Fasting blood glucose is listed as 5.08 mM.

As a reminder, the EC50 is the midpoint of the concentration-response curve. As usually defined, the solubility is the concentration that dissolves in the medium under given conditions.
